Key:
Type in all cases: in vivo
Pythium ultimum = test: Cotton varieties greenhouse trial, metalaxyl-resistant Pythium ultimum (Example 5)
Text: Two different varieties of cotton seedlings (Variety A, and Variety B) that were infected with Pythium ultimum were exposed to various rates of metalaxyl, saponins, or metalaxyl+Saponin, and then allowed to grow in a greenhouse to determine whether the effects observed in the field could be reproduced in a greenhouse setting. This particular strain of Pythium ultimum was shown previously to have a mid-degree of resistance to seed treatments containing metalaxyl and/or L-metalaxyl. […] The stand counts from Variety B show a similar trend with the 1 GA/100 Kg rate of metalaxyl (see FIG. 5B).

Pythium [1] = test: Cotton field trial, Pythium-infected seeds, seed treatment, control or Pythium-inoculated soil (Example 2)
Text: The seeds were planted in a field, either in soil that had been inoculated with Pythium (Soil Inoc. with Pythium), or in soil that had not been inoculated with Pythium (Ctrl.), then allowed to grow. Concentrations and compositions of triadimenol, metalaxyl, and saponin are the same as given in Example 1. For cotton, the industry standard dosage of metalaxyl is 15.5 grams of active ingredient per 100 kilograms of seed (15.5 GA/100 Kg). […] The data of TABLE 2 are shown graphically in FIG. 2. The relative densities for the data of TABLE 2 and FIG. 2 were calculated with reference to the 15.5 GA/100 Kg metalaxyl category. As shown by TABLE 2 and FIG. 2, inoculation of the soil with Pythium was correlated with a general decrease in cotton seedling count and density (compare Ctrl. versus Inoc.).

Pythium [2] = test: Corn field trial, Pythium-infected seeds, seed treatment, soil not inoculated (Example 1); parameters: Density: unit not given here; conditions: for Vigor: subjective score, lower more favorable
Text: Unlike other experiments disclosed herein, the soil for the experiment of EXAMPLE 1 was not inoculated with Pythium. Uninfected untreated, and Pythium-infected untreated seeds served as controls. Triadimenol, 15% w/v, is a systemic broad-spectrum fungicide used for cereal seed treatment, but has no activity against Pythium spp. Metalaxyl, 28.35% w/v, provides systemic protection for the seed, roots, and emerging plants against Pythium, systemic downy mildew, and Phytophthora. For corn, the industry standard dosage of metalaxyl is 2 grams of active ingredient per 100 kilograms of seed (2 GA/100 Kg). Saponin, 49.65% v/v extract of Chenopodium quinoa saponins, contained approximately equimolar amounts of triterpene bidesmosidic glycosides of oleanolic acid, hederagenin, and phytolaccagenic acid. […] In TABLE 1, “Vigor” represents a subjective measure of plant health and is based on uniformity, consistent plant mass, and consistent plant spacing, with lower scores being more favorable than higher scores. The data of TABLE 1 are shown graphically in FIGS. 1A and 1B. As shown by TABLE 1 and FIGS. 1A and 1B, the count and the density increased—over time—for all treatment conditions. The relative density, however, decreased over time for the […] and metalaxyl (2 GA/100 kg) categories. The relative density remained the same for the untreated/uninfected category because it provided the reference point (i.e., the relative densities were calculated with reference to the untreated/uninfected category).

Pythium [3] = test: Cucumber field trial, Pythium-infected seeds, seed treatment, control or Pythium-inoculated soil (Example 3); parameters: Density: unit not given here
Text: The seeds were planted in a field, either in soil that had been inoculated with Pythium (Soil Inoc. with Pythium), or in soil that had not been inoculated with Pythium (Ctrl.), then allowed to grow. Concentrations and compositions of triadimenol, metalaxyl, and saponin are the same as given in Example 1. For cucumber, the industry standard dosage of metalaxyl is 15.5 grams of active ingredient per 100 kilograms of seed (15.5 GA/100 Kg). […] The data of TABLE 3 are shown graphically in FIG. 3. The relative densities for the data of TABLE 3 and FIG. 3 were calculated with reference to the 31 GA/100 Kg metalaxyl category. As shown by TABLE 3 and FIG. 3, inoculation of the soil with Pythium was correlated with a general decrease in cucumber seedling count, density, and relative density (compare Ctrl. versus Inoc.).

Pythium [4] = test: Corn hybrids greenhouse trial, Pythium-infected seeds, seed treatment (Example 4)
Text: Concentrations and compositions of triadimenol, metalaxyl, and saponin are the same as given in Example 1. The data of TABLE 4 are shown graphically in FIGS. 4A and 4B. As shown by TABLE 4 and FIGS. 4A and 4B, pre-treatment of both varieties of corn seeds with 1 GA/100 Kg metalaxyl and 0.6 GA/100 Kg yielded counts similar to those achieved from pre-treatment of seeds with either 2 GA/100 Kg metalaxyl (the industry standard dose for corn) or 7.5 GA/100 Kg metalaxyl.

[5] = Metalaxyl 15.5 GA/100 Kg, 34 DAA, Ctrl. soil
[6] = Metalaxyl 15.5 GA/100 Kg, 34 DAA, Soil Inoc. with Pythium
[7] = Metalaxyl 15.5 GA/100 Kg, 46 DAA, Ctrl. soil
[8] = Metalaxyl 15.5 GA/100 Kg, 46 DAA, Soil Inoc. with Pythium
[9] = Metalaxyl 31 GA/100 Kg, 34 DAA, Ctrl. soil
[10] = Metalaxyl 31 GA/100 Kg, 34 DAA, Soil Inoc. with Pythium
[11] = Metalaxyl 31 GA/100 Kg, 46 DAA, Ctrl. soil
[12] = Metalaxyl 31 GA/100 Kg, 46 DAA, Soil Inoc. with Pythium
[13] = Metalaxyl 7.5 GA/100 Kg, 30 DAA
[14] = Metalaxyl 7.5 GA/100 Kg, 46 DAA
[15] = Metalaxyl 15.5 GA/100 Kg, 18 DAA, Ctrl. soil
[16] = Metalaxyl 15.5 GA/100 Kg, 18 DAA, Soil Inoc. with Pythium
[17] = Metalaxyl 15.5 GA/100 Kg, 33 DAA, Ctrl. soil
[18] = Metalaxyl 31 GA/100 Kg, 18 DAA, Ctrl. soil
[19] = Metalaxyl 31 GA/100 Kg, 18 DAA, Soil Inoc. with Pythium
[20] = Metalaxyl 31 GA/100 Kg, 33 DAA, Ctrl. soil
[21] = Metalaxyl 31 GA/100 Kg, 33 DAA, Soil Inoc. with Pythium
[22] = Metalaxyl 7.5 GA/100 Kg, Day 14

## COCC(=O)N(c1c(C)cccc1C)C(C)C(=O)OC (centres unmarked) [Metalaxyl]
Pythium ultimum; Metalaxyl 1 GA/100 Kg, Day 6
  Count, Variety A: 76
  Count, Variety B: 77
Pythium ultimum; Metalaxyl 1 GA/100 Kg, Day 14
  Count, Variety A: 57
  Count, Variety B: 26
Pythium ultimum; Metalaxyl 1 GA/100 Kg, Day 19
  Count, Variety A: 24
  Count, Variety B: 5
Pythium ultimum; Metalaxyl 5 GA/100 Kg, Day 6
  Count, Variety A: 70
  Count, Variety B: 94
Pythium ultimum; Metalaxyl 5 GA/100 Kg, Day 14
  Count, Variety A: 73
  Count, Variety B: 84
Pythium ultimum; Metalaxyl 5 GA/100 Kg, Day 19
  Count, Variety A: 49
  Count, Variety B: 45
Pythium ultimum; Metalaxyl 10 GA/100 Kg, Day 6
  Count, Variety A: 73.75
  Count, Variety B: 83
Pythium ultimum; Metalaxyl 10 GA/100 Kg, Day 14
  Count, Variety A: 77.5
  Count, Variety B: 85
Pythium ultimum; Metalaxyl 10 GA/100 Kg, Day 19
  Count, Variety A: 72.5
  Count, Variety B: 68
Pythium ultimum; Metalaxyl 15 GA/100 Kg, Day 6
  Count, Variety A: 60
  Count, Variety B: 83
Pythium ultimum; Metalaxyl 15 GA/100 Kg, Day 14
  Count, Variety A: 81.25
  Count, Variety B: 80
Pythium ultimum; Metalaxyl 15 GA/100 Kg, Day 19
  Count, Variety A: 36.25
  Count, Variety B: 62
Pythium [1]; Metalaxyl 15.5 GA/100 Kg (reference), 34 DAA, Ctrl. soil
  Relative Density: 100
Pythium [1]; Metalaxyl 15.5 GA/100 Kg (reference), 34 DAA, Soil Inoc. with Pythium
  Relative Density: 100
Pythium [1]; Metalaxyl 15.5 GA/100 Kg (reference), 46 DAA, Ctrl. soil
  Relative Density: 100
Pythium [1]; Metalaxyl 15.5 GA/100 Kg (reference), 46 DAA, Soil Inoc. with Pythium
  Relative Density: 100
Pythium [1]; [5]
  Count: 37
  Density: 74
Pythium [1]; [6]
  Count: 25
  Density: 50
Pythium [1]; [7]
  Count: 37.5
  Density: 75
Pythium [1]; [8]
  Count: 24.5
  Density: 49
Pythium [1]; [9]
  Count: 38
  Density: 76
  Relative Density: 102.7
Pythium [1]; [10]
  Count: 26.5
  Density: 53
  Relative Density: 106
Pythium [1]; [11]
  Count: 37
  Density: 74
  Relative Density: 98.7
Pythium [1]; [12]
  Count: 24.5
  Density: 49
  Relative Density: 100
Pythium [2]; Metalaxyl 2 GA/100 Kg, 30 DAA
  Count: 37
  Density: 46.6
  Relative Density: 124.2
Pythium [2]; Metalaxyl 2 GA/100 Kg, 46 DAA
  Count: 73
  Density: 90.9
  Relative Density: 117.8
  Vigor: 3.75
Pythium [2]; [13]
  Count: 34
  Density: 42.8
  Relative Density: 114.2
Pythium [2]; [14]
  Count: 73
  Density: 91.6
  Relative Density: 118.6
  Vigor: 3.5
Pythium [3]; [15]
  Count: 42.5
  Density: 85
  Relative Density: 121.4
Pythium [3]; [16]
  Count: 26
  Density: 52
  Relative Density: 89.7
Pythium [3]; [17]
  Count: 41.8
  Density: 83.5
  Relative Density: 122.8
Pythium [3]; Metalaxyl 31 GA/100 Kg (reference), 18 DAA, Ctrl. soil
  Relative Density: 100
Pythium [3]; Metalaxyl 31 GA/100 Kg (reference), 18 DAA, Soil Inoc. with Pythium
  Relative Density: 100
Pythium [3]; Metalaxyl 31 GA/100 Kg (reference), 33 DAA, Ctrl. soil
  Relative Density: 100
Pythium [3]; [18]
  Count: 35
  Density: 70
Pythium [3]; [19]
  Count: 29
  Density: 58
Pythium [3]; [20]
  Count: 34
  Density: 68
Pythium [3]; [21]
  Count: 8.3
  Density: 16.5
  Relative Density: 31.4
Pythium [4]; Metalaxyl 2 GA/100 Kg, Day 2
  Count, Hybrid A: 92
  Count, Hybrid B: 74
Pythium [4]; Metalaxyl 2 GA/100 Kg, Day 7
  Count, Hybrid A: 98
  Count, Hybrid B: 88
Pythium [4]; Metalaxyl 2 GA/100 Kg, Day 14
  Count, Hybrid A: 98
  Count, Hybrid B: 88
Pythium [4]; Metalaxyl 7.5 GA/100 Kg, Day 2
  Count, Hybrid A: 94
  Count, Hybrid B: 64
Pythium [4]; Metalaxyl 7.5 GA/100 Kg, Day 7
  Count, Hybrid A: 96
  Count, Hybrid B: 94
Pythium [4]; [22]
  Count, Hybrid A: 96
  Count, Hybrid B: 98
